Data taken from patent US9845292B2 (Max-Planck-Gesellschaft zur Förderung der Wissenschaften …, priority 2013, dated 2017).
Read-outs that look alike come from different tables or passages of the source.

Key:
FKBP52 = molecular target: T1, FKBP52 (Homo sapiens, UniProt Q02790); experiment: Fluorescence polarization binding assay, FK1-domain of FKBP52WT with tracer F2 (selectivity FKBP51 vs. FKBP52); conditions: selectivity factor over FKBP52
T1 construct: Purified FK1-domains of FKBP51WT (4.5 nM) with F4 (3 nM), FKBP52WT (400 nM) with F2 (20 nM); implied by Ni-NTA purification) (N); made in house; host or cells: E. coli BL21(DE3)pLysS
T1 sequence (Q02790 50-138 limits assumed): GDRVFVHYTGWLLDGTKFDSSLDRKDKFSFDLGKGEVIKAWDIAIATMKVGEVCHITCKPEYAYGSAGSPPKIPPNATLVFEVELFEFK
Procedure: (§1) The target protein was also diluted in this assay buffer at double the highest concentration required for the final sample. This protein stock was used for a 1:1 serial dilution.
(§2) The inventive compound was dissolved in DMSO to reach a 100-times concentrated stock solution. This was used for a 1:1 serial dilution in DMSO.
(§3) For FKBP12, −51, and −52 the binding assays were performed in duplicates in the plate format.
(§4) The competition curves were analyzed by using SigmaPlot9. Data were fitted to a four parameter logistic curve to deduce the IC50 values. […] A=(Amax−Amin)/[L]t×(([L]t×((2×((Klig+Kcomp+[L]t+[I]t−[R]t)^2−3×(Kcomp×([L]t−[R]t)+Klig×([I]t−[R]t)+Klig×Kcomp))^0.5×COS(ARCCOS((−2×(Klig+Kcomp+[L]t+[I]t−[R]t)^3+9×(Klig+Kcomp+[L]t+[I]t−[R]t)×(Kcomp×([L]t−[R]t)+Klig×([I]t−[R]t)+Klig×Kcomp)−27×(−1×Klig×Kcomp×[R]t))/(2×((((Klig+Kcomp+[L]t+[I]t−[R]t)^2−3×(Kcomp×([L]t−[R]t)+Klig×([I]t−[R]t)+Klig×Kcomp))^3)^0.5)))/3))−(Klig+Kcomp+[L]t+[I]t−[R]t)))/((3×Klig)+((2×((Klig+Kcomp+[L]t+[I]t−[R]t)^2−3×(Kcomp×([L]t−[R]t)+Klig×([I]t−[R]t)+Klig×Kcomp))^0.5×COS(ARCCOS((−2×(Klig+Kcomp+[L]t+[I]t−[R]t)^3+9×(Klig+Kcomp+[L]t+[I]t−[R]t)×(Kcomp×([L]t−[R]t)+Klig×([I]t−[R]t)+Klig×Kcomp)−27×(−1×Klig×Kcomp×[R]t))/(2×((((Klig+Kcomp+[L]t+[I]t−[R]t)^2−3×(Kcomp×([L]t−[R]t)+Klig×([I]t−[R]t)+Klig×Kcomp))^3)^0.5)))/3))−(Klig+Kcomp+[L]t+[I]t−[R]t))))+Amin
(§5) In this equation Klig and Kcomp stand for the Kd values of the used tracer or competing inhibitor, [I]t is referring to the total concentration of the titrated inhibitor.
The Selectivity of the Compounds was Classified by Ki(FKBP51)/Ki(FKBP52)
(§6) Inhibition constants were measured in a fluorescence polarization binding assay by titrating the compounds.

FKBP51 = molecular target: T2, FKBP51 (Homo sapiens, UniProt Q13451); experiment: Fluorescence polarization binding assay, FK1-domain of FKBP51WT with tracer F4; parameters: Purified FK1-domains of FKBP51WT (4.5 nM) with F4 (3 nM), FKBP52WT (400 nM) with F2 (20 nM); made in house; host or cells: E. coli BL21(DE3)pLysS; conditions: read-out: Affinity(Ki) for FKBP51
T2 sequence (Q13451 42-130 limits assumed): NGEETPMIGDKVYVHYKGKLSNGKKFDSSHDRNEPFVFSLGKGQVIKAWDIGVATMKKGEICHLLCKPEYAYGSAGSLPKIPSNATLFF
Procedure: as §1, §2, §3, §4, §5, §6

[1] = FKBP52WT (400 nM) with F2 (20 nM), A series

Compound | Ki(FKBP51)/Ki(FKBP52) (FKBP52; [1]) | Ki (FKBP51; FK1-domain of FKBP51WT (4.5 nM) with F4 (3 nM), A series) [µM] | Ki(FKBP51)/Ki(FKBP52) (FKBP52; compounds B01-C25) | Ki (FKBP51; compounds B01-C25) [µM]
COc1ccc(CC[C@@H](OC(=O)[C@@H]2CCCCN2C(=O)[C@@H](Cc2ccccc2)c2cc(OC)c(OC)c(OC)c2)c2cccc(OCC(=O)O)c2)cc1OC [Compound A10, 2-(3-((R)-3-(3,4-dimethoxyphenyl)-1-(((S)-1-((S)-3-phenyl-2-(3,4,5-trimethoxyphenyl)propanoyl)piperidine-2-carbonyl)oxy)propyl)phenoxy)acetic acid] | + (>5 +) | 10 to 50 | – | –
C=CC[C@H](C(=O)N1CCSC[C@H]1C(=O)O[C@H](CCc1ccc(OC)c(OC)c1)c1cccc(OCCN2CCOCC2)c1)c1cc(OC)c(OC)c(OC)c1 [Reference A34, (R)-(R)-3-(3,4-Dimethoxyphenyl)-1-(3-(2-morpholinoethoxy)phenyl)propyl-4-((S)-2-(3,4,5-trimethoxyphenyl)pent-4-enoyl)thiomorpholine-3-carboxylate] | not selective (<5 not selective) | – | – | –
C=CC[C@H](C(=O)N1CCCC1C(=O)OC(CCc1ccc(OC)c(OC)c1)c1cccc(OCCN2CCOCC2)c1)c1cc(OC)c(OC)c(OC)c1 (stereo in doubt) [Reference A33, (S)-(R)-3-(3,4-Dimethoxyphenyl)-1-(3-(2-morpholinoethoxy)phenyl)propyl-1-((S)-2-(3,4,5-trimethoxyphenyl)pent-4-enoyl)pyrrolidine-2-carboxylate] | not selective (<5 not selective) | – | – | –

The remaining lines, values ahead:

Ki(FKBP51)/Ki(FKBP52) (FKBP52; [1]) | Ki (FKBP51; FK1-domain of FKBP51WT (4.5 nM) with F4 (3 nM), A series) [µM] | Ki(FKBP51)/Ki(FKBP52) (FKBP52; compounds B01-C25) | Ki (FKBP51; compounds B01-C25) [µM] | Compound
– | – | ++ (>50 ++) | 1 to 10 | CC[C@@H](NC(=O)[C@@H]1CCCCN1C(=O)[C@H](c1cc(OC)c(OC)c(OC)c1)C1CCCCC1)C(N)=O [Compound B13, (S)-N-((R)-1-amino-1-oxobutan-2-yl)-1-((S)-2-cyclohexyl-2-(3,4,5-trimethoxyphenyl)acetyl)piperidine-2-carboxamide]
– | – | + (>5 +) | 10 to 50 | COc1cc([C@@H](C(=O)N2CCCC[C@H]2C(=O)N[C@@H](CCC(N)=O)C(N)=O)C2CCCCC2)cc(OC)c1OC [Compound B23, (S)-2-((S)-1-((S)-2-cyclohexyl-2-(3,4,5-trimethoxyphenyl)acetyl)piperidine-2-carboxamido)pentanediamide]
– | – | ++ (>50 ++) | 1 to 10 | CCOC(=O)[C@@H]1CCCCN1C(=O)[C@H](c1cc(OC)c(OC)c(OC)c1)C1CCCCC1 [Compound C02, (S)-ethyl 1-((S)-2-cyclohexyl-2-(3,4,5-trimethoxyphenyl)acetyl)piperidine-2-carboxylate]
– | – | ++ (>50 ++) | 1 to 10 | COc1cc([C@@H](C(=O)N2CCCC[C@H]2C(=O)OC2C=CCCC2)C2CCCCC2)cc(OC)c1OC (mixture of isomers) [Compound C15, (2S)-cyclohex-2-en-1-yl-1-((S)-2-cyclohexyl-2-(3,4,5-trimethoxyphenyl)acetyl) piperidine-2-carboxylate]
– | – | ++ (>50 ++) | 1 to 10 | COc1cc([C@@H](C(=O)N2CCCC[C@H]2C(=O)N[C@H](CCC(N)=O)C(N)=O)C2CCCCC2)cc(OC)c1OC [Compound B24, (R)-2-((S)-1-((S)-2-cyclohexyl-2-(3,4,5-trimethoxyphenyl)acetyl)piperidine-2-carboxamido)pentanediamide]
– | – | ++ (>50 ++) | 1 to 10 | CCC(C)OC(=O)C1CCCCN1C(=O)[C@H](c1cc(OC)c(OC)c(OC)c1)C1CCCCC1 (stereo in doubt) [Compound C08, (S)-(R)-sec-butyl-1-((S)-2-cyclohexyl-2-(3,4,5-trimethoxyphenyl)acetyl) piperidine-2-carboxylate]
– | – | ++ (>50 ++) | 10 to 50 | CC[C@H](C)OC(=O)[C@@H]1CCCCN1C(=O)[C@H](c1cc(OC)c(OC)c(OC)c1)C1CCCCC1 [Compound C07, (S)-(S)-sec-butyl-1-((S)-2-cyclohexyl-2-(3,4,5-trimethoxyphenyl)acetyl) piperidine-2-carboxylate]
